Measurements from patent US10280465B2, “Biomarkers for predicting relapse in multiple sclerosis” (The United States of America as represented by the …, priority 2014, dated 2019).
“Also recorded” adds a separate entry of the source.

How the values were obtained:
activated T cells = conditions: Singh et al., 2007; cited from earlier work
EAE = conditions: cited from earlier work
SIRT1 mRNA = SIRT1 mRNA expression in PBMCs from stable MS patients after sirtinol; assay type: cell-based, human; conditions: sirtinol 200 μM, data not shown
[1] = test system: CD8+ T cells from an MS patient; test: Annexin V-FITC binding (early apoptosis) by FACS, CD8+ T cells from an MS patient; assay type: cell-based, human; conditions: sirtinol 200 μM, 24 h
Experimental: (§1) PBMCs and Jurkat cells were plated in RPMI-10% FBS in 12-well plates 24 h prior to Annexin V FITC FACS analysis. Some of the cells were treated with sirtinol (200 μM) and the binding of Annexin V-FITC to cells was compared with that of cells exposed to vehicle (DMSO) only. Annexin V assay was performed according to manufacturer instructions (BD Biosciences) and only Annexin V FITC positive, propidium iodide negative cells were used in the evaluations since they are reflecting early apoptosis.

[2] = test system: CD4+ T cells from an MS patient; test: Annexin V-FITC binding (early apoptosis) by FACS, CD4+ T cells from an MS patient; assay type: cell-based, human; conditions: sirtinol 200 μM, 24 h
Experimental: as §1

Jurkat cells = test: Annexin V-FITC binding (early apoptosis) by FACS, Jurkat cells; assay type: cell-based; conditions: sirtinol 200 μM, 24 h
Experimental: as §1

FasL = FasL expression by FACS analysis in PBMCs from a stable MS patient after sirtinol; assay type: cell-based, human; conditions: sirtinol 200 μM
Experimental: FIGS. 8A-8D. Effect of SIRT 1 inhibition on FasL expression. PBMCs from a stable MS patient (FIG. 8A, FIG. 8C) were pretreated with the SIRT1 inhibitor sirtinol (200 μM) for 24 h (FIG. 8B, FIG. 8D), cultured with CD4^+ (FIG. 8B) or CD8^+ (FIG. 8D) T cells, and expression of FasL was then determined by FACS analysis.

RRMS = test: Clinical response to glatiramer acetate in RRMS patients over 2 years; assay type: in vivo, human; conditions: 15 RRMS patients, 20 mg subcutaneously every day for 2 years
Excerpt: A total of 15 patients with RRMS were enrolled in the study. The patients were recruited from the University of Maryland Multiple Sclerosis Center. The mean age was 40 (range, 22-60), and consisted of 60% females (n=9) and 40% males (n=6). The criteria for inclusion of MS patients in the study were: (i) age 18 to 65 years; (ii) fulfillment of the McDonald criteria for definite MS (McDonald et al., 2001; Polman et al., 2005); (iii) relapsing-remitting course; (iv) having newly diagnosed MS, or MS not treated with currently used immunomodulatory drugs (interferon-β or glatiramer acetate) for 3 months prior to study entry; (v) no exacerbations in the 4 weeks before the study; (vi) no i.v. or p.o. steroids for 4 weeks prior to study enrollment; (vii) no treatment with Tysabri, Gilenya, mitoxantrone, cyclophosphamide, or any investigational drug during the past year; and (viii) a disability score of 0-5.5, as defined by the expanded disability status scale (EDSS) (Kurtzke, 1983). […]
All MS patients received 20 mg of glatiramer acetate (GA) injected subcutaneously every day for 2 years. During this period of 2 years, patients were clinically evaluated and peripheral blood samples were collected at 0, 3, 6, and 12 months at the time of their outpatient visits. […]

**Q.** Which “apoptosis in activated T cells” value (activated T cells) does the source give for `Oc1ccc(C=Cc2cc(O)cc(O)c2)cc1` [resveratrol] here?
**A.** The value was “trigger apoptosis”.

**Q.** And the “disease course in EAE” value (EAE; Nimmagadda et al., 2013)?
**A.** The value was “ameliorates the disease course”.

**Q.** What about the “spinal cord inflammation during EAE” value (EAE; Singh et al., 2007) of the same compound?
**A.** The value was “decrease in spinal cord inflammation”.

**Q.** Which “inhibition of the expression of SIRT1 mRNA” value (SIRT1 mRNA) does the source give for `CC(NC(=O)c1ccccc1/N=C/c1c(O)ccc2ccccc12)c1ccccc1` (stereo not drawn) [sirtinol] here?
**A.** Its value is 50%.

**Q.** And the “Annexin V binding / apoptosis, in words” value ([1]; CD8+ T cells from an MS patient)?
**A.** Its value is “significant apoptosis; also recorded: significant increase in Annexin V binding”.

**Q.** What about the “apoptosis (Annexin V binding)” value ([1]; CD8 cells, control cells 22%) of the same compound?
**A.** The value was 81%.

**Q.** What about the “Annexin V binding / apoptosis, in words” value ([2]; CD4+ T cells from an MS patient) of the same compound?
**A.** Its value is “significant apoptosis; also recorded: significant increase in Annexin V binding”.

**Q.** And the “apoptosis (Annexin V binding)” value ([2]; CD4 cells, control cells 6%)?
**A.** The value was 55%.

**Q.** And the “Annexin V binding / apoptosis, in words” value (Jurkat cells)?
**A.** The value was “significant apoptosis; also recorded: significant increase in Annexin V binding”.

**Q.** And the “cells binding Annexin V” value (Jurkat cells; vehicle DMSO control 6%)?
**A.** The value was 65%.

**Q.** And the FasL expression (FasL; CD4+ T cells, 24 h)?
**A.** Its FasL expression is “significant increase”.

**Q.** And the FasL expression (FasL; CD8+ T cells, 24 h)?
**A.** The FasL expression was “significant increase”.

**Q.** What about the FasL expression (FasL; PBMCs from stable MS patients) of the same compound?
**A.** The FasL expression was “significantly increased”.

**Q.** Which results are given for glatiramer acetate [GA]?
**A.** non-responders (2 or more relapse events during the 2 year span) (RRMS): 4; responders (0 or no more than 1 relapse event during the 2 year span) (RRMS): 11
